Results on 15 compounds are retold here after US20230150974A1 (Foghorn Therapeutics Inc., priority 2020, published 2023).

One assay addresses T1, HiBit-BRG1 (Homo sapiens, UniProt P51532).
T1 construct: expressed in transfected cells
Description: HiBit-BRG1 cell-based degradation assay (Nano-Glo HiBiT Lytic Detection). As to conditions: HeLa cells expressing HiBit-BRG1 and LgBit, 24 h; for DC50: read-out: BRG1 HiBit Degradation IC50; for Dmax: read-out: BRG1 HiBit Degradation Maximum (%). In short, it runs like this: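 Seed 5000 HeLa HiBit-BRG1/LgBit cells per well; treat 24 h; equilibrate 15 min at room temperature; add Nano-Glo HiBiT lytic reagent, shake 10 min, read luminescence. Percent degradation is scaled between DMSO and 2 μM reference degrader wells.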

The target in the next assay is T2, HiBiT-BRM (Homo sapiens, UniProt P51531).
T2 construct: expressed in transfected cells
T2 sequence (P51531 whole entry): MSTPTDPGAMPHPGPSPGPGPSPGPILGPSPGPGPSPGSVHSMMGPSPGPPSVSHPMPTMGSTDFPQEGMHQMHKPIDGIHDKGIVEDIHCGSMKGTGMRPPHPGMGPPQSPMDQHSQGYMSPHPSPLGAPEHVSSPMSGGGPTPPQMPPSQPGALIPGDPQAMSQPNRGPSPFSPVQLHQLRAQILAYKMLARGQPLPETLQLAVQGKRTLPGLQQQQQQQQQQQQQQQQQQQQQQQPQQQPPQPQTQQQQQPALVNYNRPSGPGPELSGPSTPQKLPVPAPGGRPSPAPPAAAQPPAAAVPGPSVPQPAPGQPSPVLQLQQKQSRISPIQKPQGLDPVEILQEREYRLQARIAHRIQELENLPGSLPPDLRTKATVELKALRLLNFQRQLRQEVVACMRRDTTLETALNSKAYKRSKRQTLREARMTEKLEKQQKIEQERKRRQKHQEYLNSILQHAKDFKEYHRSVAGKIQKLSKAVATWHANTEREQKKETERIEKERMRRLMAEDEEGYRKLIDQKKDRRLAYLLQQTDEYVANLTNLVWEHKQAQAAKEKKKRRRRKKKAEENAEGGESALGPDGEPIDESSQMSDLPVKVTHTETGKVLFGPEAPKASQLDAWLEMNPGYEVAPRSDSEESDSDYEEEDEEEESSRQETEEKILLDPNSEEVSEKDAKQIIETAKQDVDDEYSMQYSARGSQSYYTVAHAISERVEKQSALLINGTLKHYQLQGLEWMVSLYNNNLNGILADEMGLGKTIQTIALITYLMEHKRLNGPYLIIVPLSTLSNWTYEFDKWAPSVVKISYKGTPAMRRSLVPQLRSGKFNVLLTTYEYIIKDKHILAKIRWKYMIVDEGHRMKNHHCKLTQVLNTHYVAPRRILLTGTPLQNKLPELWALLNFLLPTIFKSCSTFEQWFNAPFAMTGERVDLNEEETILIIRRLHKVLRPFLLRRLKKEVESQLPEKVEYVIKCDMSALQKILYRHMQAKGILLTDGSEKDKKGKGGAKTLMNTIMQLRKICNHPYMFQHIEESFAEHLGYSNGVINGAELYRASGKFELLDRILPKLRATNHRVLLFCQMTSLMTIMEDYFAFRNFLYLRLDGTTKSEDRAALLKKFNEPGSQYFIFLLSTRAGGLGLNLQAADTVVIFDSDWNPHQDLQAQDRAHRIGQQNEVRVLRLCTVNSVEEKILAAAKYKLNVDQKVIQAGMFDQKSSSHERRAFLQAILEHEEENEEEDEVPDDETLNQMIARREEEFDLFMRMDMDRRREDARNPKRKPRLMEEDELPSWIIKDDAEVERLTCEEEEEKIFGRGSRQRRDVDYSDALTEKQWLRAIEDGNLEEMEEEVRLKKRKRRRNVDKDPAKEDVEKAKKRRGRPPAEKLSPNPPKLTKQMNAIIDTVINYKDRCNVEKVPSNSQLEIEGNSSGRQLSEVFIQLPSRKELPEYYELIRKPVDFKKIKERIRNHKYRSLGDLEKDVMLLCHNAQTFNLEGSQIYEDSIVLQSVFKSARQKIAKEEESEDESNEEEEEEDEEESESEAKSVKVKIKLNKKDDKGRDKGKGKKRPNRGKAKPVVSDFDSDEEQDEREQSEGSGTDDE
Kind of assay: HiBiT-BRM cell-based degradation assay (Nano-Glo HiBiT Lytic Detection). To be noted: HeLa cells expressing HiBiT-BRM, 24 h; for DC50: read-out: BRM HiBit Degradation IC50. A digest of the protocol: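 HeLa cells stably expressing HiBiT-tagged BRM were treated for 24 h, then lysed with LgBiT-containing Nano-Glo reagent and luminescence read. % degradation scaled between DMSO (high control) and 2 μM reference BRM/BRG1 degrader (low control).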
In general terms: HiBiT is a short tag that completes a luciferase, so light tracks the accessible tagged protein.

T1 sequence (P51532 whole entry): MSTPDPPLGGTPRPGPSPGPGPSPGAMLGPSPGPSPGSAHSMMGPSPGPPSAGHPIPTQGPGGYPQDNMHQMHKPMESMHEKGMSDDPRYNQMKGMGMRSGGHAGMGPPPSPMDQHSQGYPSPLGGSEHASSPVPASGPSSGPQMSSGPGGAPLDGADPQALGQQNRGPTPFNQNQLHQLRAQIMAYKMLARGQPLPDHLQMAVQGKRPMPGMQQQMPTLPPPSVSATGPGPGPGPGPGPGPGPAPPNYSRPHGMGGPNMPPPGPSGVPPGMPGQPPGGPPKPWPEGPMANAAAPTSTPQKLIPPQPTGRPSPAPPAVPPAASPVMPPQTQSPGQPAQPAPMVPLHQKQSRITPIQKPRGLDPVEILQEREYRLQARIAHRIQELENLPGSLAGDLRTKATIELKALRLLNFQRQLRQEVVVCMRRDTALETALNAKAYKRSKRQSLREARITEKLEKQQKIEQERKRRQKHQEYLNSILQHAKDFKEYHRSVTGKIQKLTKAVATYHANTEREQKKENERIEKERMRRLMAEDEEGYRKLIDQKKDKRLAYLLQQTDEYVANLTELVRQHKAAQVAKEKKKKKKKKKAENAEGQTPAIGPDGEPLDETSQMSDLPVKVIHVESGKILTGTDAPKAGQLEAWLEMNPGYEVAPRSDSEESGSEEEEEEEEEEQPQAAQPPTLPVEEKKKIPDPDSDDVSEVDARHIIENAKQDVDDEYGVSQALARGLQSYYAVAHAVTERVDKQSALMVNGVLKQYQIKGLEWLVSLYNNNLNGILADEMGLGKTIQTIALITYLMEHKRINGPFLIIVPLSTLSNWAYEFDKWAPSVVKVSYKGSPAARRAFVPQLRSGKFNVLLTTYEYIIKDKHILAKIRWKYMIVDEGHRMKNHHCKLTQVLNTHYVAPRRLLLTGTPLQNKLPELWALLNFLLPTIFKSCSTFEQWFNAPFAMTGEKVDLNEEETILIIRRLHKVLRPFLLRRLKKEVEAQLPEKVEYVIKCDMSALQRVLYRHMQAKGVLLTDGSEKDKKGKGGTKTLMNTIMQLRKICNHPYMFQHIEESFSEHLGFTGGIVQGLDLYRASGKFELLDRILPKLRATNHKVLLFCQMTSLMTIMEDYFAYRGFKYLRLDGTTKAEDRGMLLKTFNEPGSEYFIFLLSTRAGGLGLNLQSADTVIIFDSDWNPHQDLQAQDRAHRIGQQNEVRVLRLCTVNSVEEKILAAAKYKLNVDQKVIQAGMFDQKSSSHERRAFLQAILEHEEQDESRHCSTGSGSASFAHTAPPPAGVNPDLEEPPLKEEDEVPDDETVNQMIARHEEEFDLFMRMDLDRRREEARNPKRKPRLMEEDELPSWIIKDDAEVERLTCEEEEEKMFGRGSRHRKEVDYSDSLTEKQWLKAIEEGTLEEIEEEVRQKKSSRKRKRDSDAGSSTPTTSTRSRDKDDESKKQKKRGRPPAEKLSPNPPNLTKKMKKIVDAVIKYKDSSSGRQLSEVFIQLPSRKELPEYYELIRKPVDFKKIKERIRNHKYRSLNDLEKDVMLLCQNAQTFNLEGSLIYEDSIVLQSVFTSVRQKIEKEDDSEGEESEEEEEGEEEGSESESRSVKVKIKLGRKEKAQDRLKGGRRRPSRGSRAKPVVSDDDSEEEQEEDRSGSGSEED

Regarding `Cc1ncsc1-c1ccc([C@H](C)NC(=O)[C@@H]2C[C@@H](O)CN2C(=O)[C@@H](NC(=O)CCCCCCCCC(=O)NCc2ccc(CCOc3cc(-c4ccccc4O)nnc3N)cc2)C(C)(C)C)cc1` [Compound 257, N1-(4-(2-((3-amino-6-(2-hydroxyphenyl)pyridazin-4-yl)oxy)ethyl)benzyl)-N10-((S)-1-((2S,4R)-4-hydroxy-2-(((S)-1-(4-(4-methylthiazol-5-yl)phenyl)ethyl)carbamoyl)pyrrolidin-1-yl)-3,3-dimethyl-1-oxobutan-2-yl)decanediamide], on HiBit-BRG1, the DC50 was more than 1000 nM and the Dmax was less than 50%. For the same compound, at HiBiT-BRM, the “BRM HiBit Degradation Maximum (%)” value is “A (“A” indicates maximum degradation ≥75%)” and the DC50 is more than 10 nM.

`Nc1nnc(-c2ccccc2O)cc1OCCc1ccc(CNCCCCCNc2cccc3nnn(C4CCC(=O)NC4=O)c(=O)c23)cc1` (centres unmarked) [Compound 120, 3-(5-[[5-([[4-(2-[[3-amino-6-(2-hydroxyphenyl)pyridazin-4-yl]oxy]ethyl)phenyl]methyl]amino)pentyl]amino]-4-oxo-1,2,3-benzotriazin-3-yl)piperidine-2,6-dione]: at HiBit-BRG1, the DC50 was more than 1000 nM and the Dmax was more than 50%. On HiBiT-BRM, the “BRM HiBit Degradation Maximum (%)” value is listed as “B (“B” indicates maximum degradation ≥50%)” and the DC50 is more than 100 nM.

For `Cc1ncsc1-c1ccc([C@H](C)NC(=O)[C@@H]2C[C@@H](O)CN2C(=O)[C@@H](c2cc(OCCN3CC(C(=O)NCc4ccc(CCOc5cc(-c6ccccc6O)nnc5N)cc4)C3)no2)C(C)C)cc1` [Compound 178, (2S,4R)-1-((R)-2-(3-(2-(3-((4-(2-((3-amino-6-(2-hydroxyphenyl)pyridazin-4-yl)oxy)ethyl)benzyl)carbamoyl)azetidin-1-yl)ethoxy)isoxazol-5-yl)-3-methylbutanoyl)-4-hydroxy-N-((S)-1-(4-(4-methylthiazol-5-yl)phenyl)ethyl)pyrrolidine-2-carboxamide], on HiBit-BRG1, the DC50 was more than 100 nM and the Dmax was more than 75%. Also, at HiBiT-BRM, the “BRM HiBit Degradation Maximum (%)” value is recorded as “A (“A” indicates maximum degradation ≥75%)” and the DC50 was more than 100 nM.

Regarding `Nc1nnc(-c2ccccc2O)cc1N1CCN(CCNC(=O)CCCCOc2cccc3c2C(=O)N(C2CCC(=O)NC2=O)C3=O)CC1` (centres unmarked) [Compound 89, N-(2-[4-[3-amino-6-(2-hydroxyphenyl)pyridazin-4-yl]piperazin-1-yl]ethyl)-5-[[2-(2,6-dioxopiperidin-3-yl)-1,3-dioxoisoindol-4-yl]oxy]pentanamide], at HiBit-BRG1, the DC50 was more than 1000 nM and the Dmax is less than 50%. For the same compound, at HiBiT-BRM, the “BRM HiBit Degradation Maximum (%)” value is recorded as “C (“C” indicates maximum degradation <50%)” and the DC50 is more than 1000 nM.

With `Nc1nnc(-c2ccccc2O)cc1OCCc1ccc(CNCCCCCOc2cccc3c2C(=O)N(C2CCC(=O)NC2=O)C3=O)cc1` (centres unmarked) [Compound 9, 4-[[5-([[4-(2-[[3-amino-6-(2-hydroxyphenyl)pyridazin-4-yl]oxy]ethyl)phenyl]methyl]amino)pentyl]oxy]-2-(2,6-dioxopiperidin-3-yl)isoindole-1,3-dione], the DC50 at HiBit-BRG1 is more than 1000 nM. Moreover, at HiBiT-BRM, the “BRM HiBit Degradation Maximum (%)” value is “A (“A” indicates maximum degradation ≥75%)” and the DC50 was more than 100 nM.

On to `Nc1nnc(-c2ccccc2O)cc1OCCc1ccc(CNC(=O)CCCCCCCCCCNc2ccc3c(c2)C(=O)N(C2CCC(=O)NC2=O)C3=O)cc1` (centres unmarked) [Compound 66], for which, at HiBit-BRG1, the DC50 was more than 1000 nM and the Dmax is less than 50%. For the same compound, at HiBiT-BRM, the “BRM HiBit Degradation Maximum (%)” value is reported as “C (“C” indicates maximum degradation <50%)” and the DC50 was more than 1000 nM.

For `Nc1nnc(-c2ccccc2O)cc1N1CCN(CCNC(=O)CCCCCCCCNc2cccc3c2C(=O)N(C2CCC(=O)NC2=O)C3=O)CC1` (centres unmarked) [Compound 97, N-(2-[4-[3-amino-6-(2-hydroxyphenyl)pyridazin-4-yl]piperazin-1-yl]ethyl)-9-[[2-(2,6-dioxopiperidin-3-yl)-1,3-dioxoisoindol-4-yl]amino]nonanamide], at HiBit-BRG1, the DC50 was more than 1000 nM and the Dmax is less than 50%. For the same compound, at HiBiT-BRM, the “BRM HiBit Degradation Maximum (%)” value is on record as “C (“C” indicates maximum degradation <50%)” and the DC50 is more than 1000 nM.

Consider `Cc1ncsc1-c1ccc([C@H](C)NC(=O)[C@@H]2C[C@@H](O)CN2C(=O)[C@@H](c2cc(OCCNCCCCCCCCC(=O)NCc3ccc(CCOc4cc(-c5ccccc5O)nnc4N)cc3)no2)C(C)C)cc1` [Compound 239, (2S,4R)-1-((R)-2-(3-(2-((9-((4-(2-((3-amino-6-(2-hydroxyphenyl)pyridazin-4-yl)oxy)ethyl)benzyl)amino)-9-oxononyl)amino)ethoxy)isoxazol-5-yl)-3-methylbutanoyl)-4-hydroxy-N-((S)-1-(4-(4-methylthiazol-5-yl)phenyl)ethyl)pyrrolidine-2-carboxamide], for which, at HiBit-BRG1, the DC50 was more than 1000 nM and the Dmax was less than 50%. Moreover, on HiBiT-BRM, the “BRM HiBit Degradation Maximum (%)” value was “A (“A” indicates maximum degradation ≥75%)” and the DC50 was more than 100 nM.

For the compound `Cc1ncsc1-c1ccc([C@H](C)NC(=O)[C@@H]2C[C@@H](O)CN2C(=O)[C@@H](c2cc(OCCNCCCCCCC(=O)NCc3ccc(CCOc4cc(-c5ccccc5O)nnc4N)cc3)no2)C(C)C)cc1` [Compound 229, (2S,4R)-1-((R)-2-(3-(2-((7-((4-(2-((3-amino-6-(2-hydroxyphenyl)pyridazin-4-yl)oxy)ethyl)benzyl)amino)-7-oxoheptyl)amino)ethoxy)isoxazol-5-yl)-3-methylbutanoyl)-4-hydroxy-N-((S)-1-(4-(4-methylthiazol-5-yl)phenyl)ethyl)pyrrolidine-2-carboxamide], on HiBit-BRG1, the DC50 is more than 1000 nM and the Dmax was less than 50%. Also, on HiBiT-BRM, the “BRM HiBit Degradation Maximum (%)” value is recorded as “B (“B” indicates maximum degradation ≥50%)” and the DC50 is more than 1000 nM.

In the case of `Nc1nnc(-c2ccccc2O)cc1N1CCN(CC(=O)NCCCCNc2ccc3c(c2)C(=O)N(C2CCC(=O)NC2=O)C3=O)CC1` (centres unmarked) [Compound 103, 2-[4-[3-amino-6-(2-hydroxyphenyl)pyridazin-4-yl]piperazin-1-yl]-N-(4-[[2-(2,6-dioxopiperidin-3-yl)-1,3-dioxo-2,3-dihydro-1H-isoindol-5-yl]amino]butyl)acetamide], at HiBit-BRG1, the DC50 was more than 1000 nM and the Dmax is less than 50%. In addition, on HiBiT-BRM, the “BRM HiBit Degradation Maximum (%)” value is reported as “C (“C” indicates maximum degradation <50%)” and the DC50 was more than 1000 nM.

On to `Nc1nnc(-c2ccccc2O)cc1OCCc1ccc(C(=O)NCCCCCCCCCC(=O)NCc2ccc(S(=O)(=O)Nc3cccc4c(Cl)c[nH]c34)cc2)cc1` [Compound 12, 10-[[4-(2-[[3-amino-6-(2-hydroxyphenyl)pyridazin-4-yl]oxy]ethyl)phenyl]formamido]-N-([4-[(3-chloro-1H-indol-7-yl)sulfamoyl]phenyl]methyl)decanamide], for which, on HiBit-BRG1, the DC50 was more than 1000 nM and the Dmax is less than 50%. Besides, at HiBiT-BRM, the “BRM HiBit Degradation Maximum (%)” value is listed as “C (“C” indicates maximum degradation <50%)” and the DC50 was more than 1000 nM.

Regarding `Cc1ncsc1-c1ccc(CNC(=O)[C@@H]2C[C@@H](O)CN2C(=O)[C@@H](NC(=O)COCCOCCOCCOCC(=O)NCc2ccc(CCOc3cc(-c4ccccc4O)nnc3N)cc2)C(C)(C)C)cc1` [Compound 39], at HiBit-BRG1, the DC50 is more than 1000 nM and the Dmax is less than 50%. In addition, on HiBiT-BRM, the “BRM HiBit Degradation Maximum (%)” value is given as “C (“C” indicates maximum degradation <50%)” and the DC50 was more than 1000 nM.

As to `Cc1ncsc1-c1ccc([C@H](C)NC(=O)[C@@H]2C[C@@H](O)CN2C(=O)[C@@H](c2cc(OCCN3CC(CC(=O)NCc4ccc(CCOc5cc(-c6ccccc6O)nnc5N)cc4)C3)no2)C(C)C)cc1` [Compound 193, (2S,4R)-1-[2-[3-(2-[3-[([[4-(2-[[3-amino-6-(2-hydroxyphenyl)pyridazin-4-yl]oxy]ethyl)phenyl]methyl]carbamoyl)methyl]azetidin-1-yl]ethoxy)-1,2-oxazol-5-yl]-3-methylbutanoyl]-4-hydroxy-N-[(1S)-1-[4-(4-methyl-1,3-thiazol-5-yl)phenyl]ethyl]pyrrolidine-2-carboxamide], on HiBit-BRG1, the DC50 was more than 1000 nM and the Dmax is less than 50%. Besides, at HiBiT-BRM, the “BRM HiBit Degradation Maximum (%)” value is listed as “B (“B” indicates maximum degradation ≥50%)” and the DC50 was more than 100 nM.

On to `Cc1ncsc1-c1ccc(CNC(=O)[C@@H]2C[C@H](O)CN2C(=O)[C@@H](NC(=O)CCCCCCCCCNC(=O)c2ccc(CCOc3cc(-c4ccccc4O)nnc3N)cc2)C(C)(C)C)cc1` [Compound 105, (2S,4S)-1-((S)-2-(10-(4-(2-((3-amino-6-(2-hydroxyphenyl)pyridazin-4-yl)oxy)ethyl)benzamido)decanamido)-3,3-dimethylbutanoyl)-4-hydroxy-N-(4-(4-methylthiazol-5-yl)benzyl)pyrrolidine-2-carboxamide], for which, at HiBit-BRG1, the DC50 was more than 1000 nM and the Dmax is less than 50%. Further, on HiBiT-BRM, the “BRM HiBit Degradation Maximum (%)” value is on record as “C (“C” indicates maximum degradation <50%)” and the DC50 is more than 1000 nM.

As for `Cc1ncsc1-c1ccc([C@H](C)NC(=O)[C@@H]2C[C@@H](O)CN2C(=O)[C@@H](c2cc(OCCN3C[C@H]4CC[C@@H](C3)N4C(=O)c3ccc(CCOc4cc(-c5ccccc5O)nnc4N)cc3)no2)C(C)C)cc1` [Compound 220, (2S,4R)-1-((2R)-2-(3-(2-(8-(4-(2-((3-amino-6-(2-hydroxyphenyl)pyridazin-4-yl)oxy)ethyl)benzoyl)-3,8-diazabicyclo[3.2.1]octan-3-yl)ethoxy)isoxazol-5-yl)-3-methylbutanoyl)-4-hydroxy-N-((S)-1-(4-(4-methylthiazol-5-yl)phenyl)ethyl)pyrrolidine-2-carboxamide], at HiBit-BRG1, the DC50 was more than 10 nM and the Dmax is more than 75%. Moreover, at HiBiT-BRM, the “BRM HiBit Degradation Maximum (%)” value is recorded as “A (“A” indicates maximum degradation ≥75%)” and the DC50 was less than 10 nM.
